Results reported in article PMC8279484 (Journal of Medicinal Chemistry, 2021).

Columns and labels:
Format in all cases: cell-based, human
NF-κB = assay: LPS-induced NF-κB-driven luciferase gene reporter assay in THP-1 Lucia monocytes; conditions: for Rel. Slope: HS relative to LXA4 (1); for Efficacy Rel. Eff.: Imax relative to LXA4 (1); for reduction of LPS-induced NF-κB-driven luciferase activity: approximate extent; for reduction of LPS-induced NF-κB-driven luciferase activity / Imax (%): 1 pM–1 μM; for Imax (%): maximal % inhibition of LPS (50 ng/mL)-stimulated NF-κB luciferase activity, 30 min pretreatment
Description: Mycoplasma-free THP-1-Lucia NF-κB cells were grown in an RPMI 1640 (Gibco) medium containing 2 mM L-glutamine, 1.50 g/L sodium bicarbonate, 4.50 g/L glucose, 10 mM N-(2-hydroxyethyl)piperazine-N′-ethanesulfonic acid (HEPES), and 1 mM sodium pyruvate. Then, 10% heat-inactivated fetal bovine serum (FBS) (30 min at 56 °C), 100 μg/mL Normocin, and Pen-Strep (50 U/mL to 50 μg/mL) were also added to the growth media. As THP-1-Lucia cells were resistant to Zeocin, the latter was used as a selective antibiotic (a high dose, i.e., 100 μg/mL, was alternated every 2 weeks with a low dose, i.e., 10 μg/mL).
(§1) LXA41 and all of the tested sLXms were dissolved in ethanol and further diluted in a culture medium (final ethanol concentration 0.1%; equivalent concentrations were used as the vehicle control). Prior to in vitro experiments, THP-1-Lucia NF-κB cells were harvested and plated at 1 × 10^5 cells/well on 96-well plates and left to settle in the incubator at 37 °C, 95% humidity, and 5% CO2, in 0.1% FBS-containing media, pretreated for 30 min with increasing doses of LXA41, sLXms (from 10^–12 to 10^–6 M), or appropriate controls, followed by stimulation with 50 ng/mL LPS for 24 h.
NFκB activity was monitored in the human THP-1 monocytic leukemia cell line containing a stably integrated NF-κB-inducible Lucia reporter construct (as previously reported).[21] When stimulated with LPS, the transcription factor NF-κB is activated, upregulating the synthesis of proinflammatory mediators, thus bringing about an inflammatory response. In these cells, NF-κB activation is linked to a […] luciferase gene and can be measured using luminescence.
Heat-killed listeria monocytogenes (HKLM) (10^8/mL) was used as a positive control.[28] The levels of NF-κB-induced Luciferase were then measured in a culture supernatant using QUANTI-Luc as the detection reagent, and measurements were taken on a bioluminescence reader.
After 24 h, the levels of NF-κB-induced Lucia were assayed in a cell culture supernatant using QUANTI-Luc, as a detection reagent, on a bioluminescence reader (Synergy HT, BioTek Instruments, Inc. Vermont). Aliquots of the supernatant were retained for subsequent cytokine and LDH assays. Cellular proteins were extracted with a radioimmunoprecipitation assay (RIPA) buffer (Thermo Fisher, Ireland), supplemented with protease inhibitors (Sigma-Aldrich, Ireland). Lysates were clarified by centrifugation (3200g, 10’, 4 °C) to remove cell debris, and the cell protein level was quantified by performing a bicinchoninic acid (BCA) assay (as per the manufacturer’s instructions) reading the protein absorbance at 570 nm, using a spectrophotometer (SPECTRAMAX M2, Molecular Devices (U.K.) Limited). A “relative luminescence unit” (RLU) was obtained using the average value of the lum/abs ratio of two replicates.
The “coding” of the heat-map indicates the arbitrary criteria to assign points to each single PD component (efficacy = Imax or Emax; potency = IC50 or EC50; slope = HS) to generate a final (aggregate) relative PD score. […] If a single PD component was equal to the reference level (x = 1), then the single-component relative score was arbitrarily set to 0 (gray). If a single PD component was smaller than the reference level (x < 1), then the single-component relative score was arbitrarily set to −1 (light red) or −2 (dark red). If the curve of a single PD component was best fitting to a flat line (x = 0), then the single-component relative score was arbitrarily set to −4 (purple) (Table S1).

IFNγ = assay: LPS-induced IFNγ release from THP-1 Lucia monocytes (multiplex electrochemiluminescence)
Description: as §1, with “h. Untreated (Unt) or vehicle-treated (Veh) cells were used as negative controls; 1 pM (1R)-5, the (1R)-epimer of the benzo-mimetic, was used as a positive control for any aromatic mimetic; and, finally, we compared the observed effects to the conventional glucocorticoid dexamethasone (Dex) treatment, at 1 μM.” for “h.”
(§2) After 24 h of exposure to LXA41, sLXms, or vehicle, followed by LPS stimulation (50 ng/mL), as described above, THP-1-Lucia NF-κB-cell supernatants were collected and cleared by centrifugation. Concentrations of IFN-γ, IL-1β, IL-6, IL-8, IL-10, IL-12p70, and TNF-α in culture supernatants were assessed by electro-chemi-luminescent detection, using a commercially available human 96-well plate “multiplex” (several analytes in the same well) kit for tissue culture samples, according to the manufacturers’ guidelines.
(§3) The “coding” of the heat-map indicates the arbitrary criteria to assign points to each single PD component (efficacy = Imax or Emax; potency = IC50 or EC50; slope = HS) to generate a final (aggregate) relative PD score. If a single PD component was greater than the reference level (x > 1), then the single-component relative score was arbitrarily set to +1 (light green) or +2 (dark green). If a single PD component was equal to the reference level (x = 1), then the single-component relative score was arbitrarily set to 0 (gray). If a single PD component was smaller than the reference level (x < 1), then the single-component relative score was arbitrarily set to −1 (light red) or −2 (dark red). If the curve of a single PD component was best fitting to a flat line (x = 0), then the single-component relative score was arbitrarily set to −4 (purple) (Table S1).

THP-1 LUCIA monocytes [1] = assay: Intrinsic cytotoxicity: LDH release without LPS; conditions: for Intrinsic Toxicity Level: LDH-associated level of cytotoxicity (high / moderate / low); for Intrinsic Toxicity TC50 (pM): half-maximal intrinsic LDH-associated toxic activity, no LPS
Description: We investigated the potential cytotoxicity of all candidate sLXms by assaying LDH release.[50] The response to LPS was arbitrarily set to 100%, and values were expressed relative to this. As previously reported by others, LPS provokes LDH release.[51] […] Ultimately, untreated cells defined the spontaneous cell release thresholds.
Lactate dehydrogenase (LDH) was assayed in cell supernatants to investigate possible cytotoxicity of the lead compound. LDH is rapidly released into the culture medium after disruption of the plasma membrane.[67],[69] After 24 h of exposure to sLXms, vehicle, or controls, followed by LPS stimulation, as described above, THP-1-Lucia NF-κB-cell supernatants were collected and LDH was assayed. Cytotoxicity was evaluated relative to vehicle controls. Maximum releasable LDH was determined in cells lysed with 2% Triton-X-100 (Sigma-Aldrich, Ireland). LDH levels were assessed by reading the absorbance at 490 nm (protein) and 690 nm (background noise), using a spectrophotometer (SPECTRAMAX M2, Molecular Devices (U.K.) Limited).

THP-1 LUCIA monocytes [2] = assay: In vitro safety study: Safety index (Si), activity versus toxicity; conditions: for IC50: Homo sapiens, THP-1, highest IC50 among the LPS-challenged assays (NF-κB activity, cytokine, LDH release), read-out: Extrinsic Activity hIC50; for Safety Index TC50/IC50: ratio of intrinsic TC50 to extrinsic hIC50
Description: A postanalysis “safety study” was conducted on all QNX-sLXms. For each tested compound, we calculated an in vitro “Safety index” (Si) by relating its “anti-inflammatory half-maximal activity” (the highest dose among the IC50 of the extrinsic LPS-challenged phenotype: NF-κB activity, proinflammatory cytokine, and LDH release) to its intrinsic “toxicity” (expressed as the relative half-maximal LDH-associated cytotoxicity). The generated Si is potentially predictive of a translational “therapeutic” range: the higher the Si, the safer the molecule is. As summarized in Table S4, Si values from all tested compounds fall in a broad range (7–50).

IL-6 = assay: LPS-induced IL-6 release from THP-1 Lucia monocytes (multiplex electrochemiluminescence)
Description: as §1, with “h. Untreated (Unt) or vehicle-treated (Veh) cells were used as negative controls; 1 pM (1R)-5, the (1R)-epimer of the benzo-mimetic, was used as a positive control for any aromatic mimetic; and, finally, we compared the observed effects to the conventional glucocorticoid dexamethasone (Dex) treatment, at 1 μM.” for “h.”
as §2, §3

IL-1β = assay: LPS-induced IL-1β release from THP-1 Lucia monocytes (multiplex electrochemiluminescence)
Description: as §1, with “h. Untreated (Unt) or vehicle-treated (Veh) cells were used as negative controls; 1 pM (1R)-5, the (1R)-epimer of the benzo-mimetic, was used as a positive control for any aromatic mimetic; and, finally, we compared the observed effects to the conventional glucocorticoid dexamethasone (Dex) treatment, at 1 μM.” for “h.”
as §2, §3

[3] = Homo sapiens, THP-1, LPS 50 ng/mL, 24 h
[4] = concentration–response, LPS 50 ng/mL, 24 h

Compound | Rel. Slope (NF-κB) | Efficacy Rel. Eff. (NF-κB) | reduction of LPS-induced NF-κB-driven luciferase activity (NF-κB) | Imax (%) (NF-κB; 24 h) | (Single component) Rel. Score: Rel. Sl. (NF-κB; score relative to LXA4 (1)) | Intrinsic Toxicity Level (THP-1 LUCIA monocytes [1]) | Intrinsic Toxicity TC50 (pM) (THP-1 LUCIA monocytes [1]) | IC50 (THP-1 LUCIA monocytes [2]) [nM] | Safety Index TC50/IC50 (THP-1 LUCIA monocytes [2]) | further results
CCCCCCC[C@@H](O)c1nc2ccccc2nc1/C=C/[C@@H](O)[C@@H](O)CCCC(=O)OC [(R)-8, Methyl (5S,6R,E)-5,6-Dihydroxy-8-(3-((R)-1-hydroxyoctyl)quinoxalin-2-yl)oct-7-enoate] | 0.49 | 0.96 | 10–20% | 23 ± 7 | -1 (0.01 < x < 1) | Low-Mod. | 10,000 pM | 0.2 | 50 | IC50 (NF-κB; Homo sapiens, THP-1, LPS 50 ng/mL, 24 h, read-out: Potency IC50): 0.04 nM; Potency Rel. Pot. (NF-κB; IC50 relative to LXA4 (1)): 1.5; IC50 (range in words) (NF-κB; LPS 50 ng/mL, 24 h): “pM” range; (Single component) Rel. Score: Rel. Pot. (NF-κB; score relative to LXA4 (1)): 1 (1 < x < 5); (Aggregate) Rel. PD Score (NF-κB; sum of efficacy, potency, slope scores relative to LXA4 (1)): 0; PD score, IFNγ release (IFNγ; relative to LXA4 (1)): negative PD scores
CCCCC[C@H](O)c1nc2ccccc2nc1/C=C/[C@@H](O)[C@@H](O)CCCC(=O)OC [(S)-6, Methyl (5S,6R,E)-5,6-Dihydroxy-8-(3-((S)-1-hydroxyhexyl)quinoxalin-2-yl)oct-7-enoate] | 0.47 | 1.42 | 25–35% | 34 ± 9 | 1 (1 < x < 10) | Low-Mod. | 200 pM | 0.02 | 10 | IC50 (IL-6; [3]): 0.001 nM; Imax, IL-6 release (IL-6; [4]): 98 ± 1%; PD score, IL-6 release (IL-6; relative to LXA4 (1)): +2; rel. slope, IL-6 release (IL-6; relative to LXA4 (1)): 2.4; Imax, IL-1β release (IL-1β; [4]): completely lost the protective effect; PD score, IL-1β release (IL-1β; relative to LXA4 (1)): −6; IC50 (IFNγ; [3]): 2 nM; Imax, IFNγ release (IFNγ; [4]): 74 ± 4%
